Measured values published in patent publication US9334269B2, “Carboxamides as inhibitors of voltage-gated sodium channels” (AMGEN INC., priority 2010, dated 2016).

The compounds below were run against T1, human Nav1.7 (hNav1.7) (Homo sapiens, UniProt Q15858) (assay: hNav1.7 whole-cell patch-clamp electrophysiology (automated PatchXpress 7000A or manual) in stably expressing 293 cells). Details: average IC50.
T1 construct: expressed in transfected cells
Format: cell-based
Description: Compounds were tested on human Nav1.7 (hNav1.7) expressed stably in 293 cells, which have no endogenous sodium channels. Two forms of whole-cell patch-clamp assays were used. In both, peak current through Nav1.7 was evoked by a depolarizing voltage pulse, and currents were monitored as a function of time in response to exposure to several different concentrations of drug. Automated electrophysiology uses the PatchXpress 7000A system. Up to sixteen cells at a time were voltage-clamped in parallel, and the steady-state voltage dependence of inactivation was determined experimentally for each cell. For each cell, fractional inactivation was set at 20%, and peak current through Nav1.7 as a function of time was measured in response to increasing concentrations of test compound. Manual electrophysiology refers to conventional whole-cell patch-clamping (Hamill et al., 1981). After formation of the whole-cell clamp, cells were lifted off the bottom of the dish with the patch pipette and positioned directly in front of an array of glass microperfusion tubes each with internal diameter about 250 microns, with individual compound concentrations flowing from each tube. Current as a function of time in response to increasing drug concentrations was measured with Nav1.7 fully in the resting state (holding voltage set to −140 mV) and on the same cells with the holding voltage set to produce about 20% inactivation. Compounds were not applied for a prespecified time, but for as long as required to achieve a stable level of block. For both forms of electrophysiology, offline analysis was used to correct for rundown of channel current and to determine percent inhibition as a function of drug concentration. IC50 were determined by fitting to the Hill equation.

T1 sequence (Q15858 whole entry): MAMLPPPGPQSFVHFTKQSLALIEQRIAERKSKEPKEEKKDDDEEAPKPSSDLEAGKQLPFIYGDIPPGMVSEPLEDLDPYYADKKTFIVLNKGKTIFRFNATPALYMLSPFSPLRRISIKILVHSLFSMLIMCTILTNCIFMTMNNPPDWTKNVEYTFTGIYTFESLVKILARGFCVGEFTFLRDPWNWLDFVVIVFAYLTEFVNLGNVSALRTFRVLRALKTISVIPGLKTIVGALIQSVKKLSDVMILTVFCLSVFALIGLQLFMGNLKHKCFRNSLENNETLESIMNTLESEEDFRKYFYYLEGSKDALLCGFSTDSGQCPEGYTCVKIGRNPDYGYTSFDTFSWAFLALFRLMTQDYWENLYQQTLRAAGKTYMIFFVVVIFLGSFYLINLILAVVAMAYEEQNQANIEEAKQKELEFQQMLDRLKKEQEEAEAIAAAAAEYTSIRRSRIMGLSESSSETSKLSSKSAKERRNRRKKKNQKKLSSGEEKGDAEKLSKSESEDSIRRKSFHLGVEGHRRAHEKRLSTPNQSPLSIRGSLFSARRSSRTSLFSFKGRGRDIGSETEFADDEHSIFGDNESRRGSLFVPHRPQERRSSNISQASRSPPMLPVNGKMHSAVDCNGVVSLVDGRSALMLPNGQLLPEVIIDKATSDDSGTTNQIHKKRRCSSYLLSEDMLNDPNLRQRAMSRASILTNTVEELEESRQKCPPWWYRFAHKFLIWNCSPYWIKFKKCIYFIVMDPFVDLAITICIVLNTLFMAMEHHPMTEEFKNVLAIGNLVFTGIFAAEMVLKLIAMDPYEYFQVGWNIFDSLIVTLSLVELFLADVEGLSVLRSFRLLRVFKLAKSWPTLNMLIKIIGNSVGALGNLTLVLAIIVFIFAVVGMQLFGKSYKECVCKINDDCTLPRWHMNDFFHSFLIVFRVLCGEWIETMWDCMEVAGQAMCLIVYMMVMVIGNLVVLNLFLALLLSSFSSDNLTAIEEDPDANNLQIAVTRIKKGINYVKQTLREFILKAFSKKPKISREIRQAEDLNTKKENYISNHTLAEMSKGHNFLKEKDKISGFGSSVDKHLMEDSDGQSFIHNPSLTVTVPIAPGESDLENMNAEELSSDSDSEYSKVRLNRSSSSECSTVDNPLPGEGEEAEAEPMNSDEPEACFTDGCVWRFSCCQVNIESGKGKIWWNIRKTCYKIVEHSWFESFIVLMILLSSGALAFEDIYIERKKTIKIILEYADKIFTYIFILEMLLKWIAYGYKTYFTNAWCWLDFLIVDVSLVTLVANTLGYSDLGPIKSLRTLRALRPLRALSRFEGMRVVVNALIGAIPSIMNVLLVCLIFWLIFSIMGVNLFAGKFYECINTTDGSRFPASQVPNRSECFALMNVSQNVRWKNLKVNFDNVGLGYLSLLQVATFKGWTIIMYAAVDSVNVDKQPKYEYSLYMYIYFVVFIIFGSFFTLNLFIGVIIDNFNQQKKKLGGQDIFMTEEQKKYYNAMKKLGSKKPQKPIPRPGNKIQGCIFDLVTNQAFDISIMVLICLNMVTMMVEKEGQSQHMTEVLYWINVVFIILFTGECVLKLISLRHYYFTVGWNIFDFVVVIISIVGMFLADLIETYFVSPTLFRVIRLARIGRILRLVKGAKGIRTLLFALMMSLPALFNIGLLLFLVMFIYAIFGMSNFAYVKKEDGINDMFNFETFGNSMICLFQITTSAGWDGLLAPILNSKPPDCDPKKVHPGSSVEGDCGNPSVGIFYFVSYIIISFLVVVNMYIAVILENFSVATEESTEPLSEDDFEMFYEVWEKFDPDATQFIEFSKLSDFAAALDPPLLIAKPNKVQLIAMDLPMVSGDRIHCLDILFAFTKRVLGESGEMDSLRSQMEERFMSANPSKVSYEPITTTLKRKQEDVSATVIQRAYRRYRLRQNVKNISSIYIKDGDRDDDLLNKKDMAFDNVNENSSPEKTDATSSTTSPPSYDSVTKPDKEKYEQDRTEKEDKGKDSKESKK

| IC50 | SMILES |
| --- | --- |
| 18.9 µM | CNC(=O)c1cccc(Nc2ncnc(N3CC(Oc4ccc(C5CCCC5)cc4)C3)n2)c1 [Example 264] |
| 21.7 µM | CNC(=O)c1cccc(Nc2ncnc(N3CC(OCc4ccc(F)cc4)C3)n2)c1 [Example 272] |
| > 30 µM | CNC(=O)c1cccc(Nc2ncnc(NCc3cn4cc(C)ccc4n3)n2)c1 [Example 286] |
| > 30 µM | Cc1ccc(N2CCN(c3ncnc(Nc4ccc(F)c(C(N)=O)c4)n3)CC2)cc1C [Example 295] |

Same assay, conditions: average IC50, human Nav1.7

| SMILES | IC50 |
| --- | --- |
| NC(=O)c1cccc(Nc2ncnc(N3CCC(OCc4ccc(OC(F)(F)F)cc4)CC3)n2)c1 [Example 200] | 7.03 µM |
| CNC(=O)c1cccc(Nc2nccc(N3CC(Oc4ccc(Cl)c(C)c4)C3)n2)c1 [Example 19] | 0.31 µM |
| CNC(=O)c1cccc(Nc2ncnc(N3CC(COc4ccc(Cl)cc4)C3)n2)c1 [Example 40] | 0.5 µM |
| CNC(=O)c1cc(Nc2ncnc(N3CCC(c4nc(-c5ccccc5)cs4)CC3)n2)ccc1Cl [Example 27] | 0.4 µM |
| CNC(=O)c1cc(F)cc(Nc2ncnc(N3CC(Oc4ccc(F)c(Cl)c4)C3)n2)c1 [Example 121] | 2.09 µM |
| CNC(=O)c1cccc(Nc2nccc(N3CC(Oc4ccc(Cl)c(Cl)c4)C3)n2)c1 [Example 59] | 0.78 µM |
| CNC(=O)c1cccc(Nc2ncnc(N3CCN(c4ccc(C#N)cc4)CC3)n2)c1 [Example 195] | 6.03 µM |
| NC(=O)c1cccc(Nc2ncnc(N3CC(Oc4ccc(F)cc4)C3)n2)c1 [Example 237] | 10.7 µM |
| CNC(=O)c1cccc(Nc2ncnc(N3CCC(C#Cc4ccccc4)CC3)n2)c1 [Example 124] | 2.16 µM |
| CNC(=O)c1cc(F)cc(Nc2ncnc(N3CC(COc4ccc(C(F)(F)F)cc4)C3)n2)c1 [Example 112] | 1.78 µM |
| CNC(=O)c1cccc(Nc2ncnc(NCCCc3ccc(Cl)cc3)n2)c1 [Example 232] | 9.84 µM |
| O=C(NC1CC1)c1cccc(Nc2ncnc(N3CC(Oc4ccc(F)cc4)C3)n2)c1 [Example 205] | 7.42 µM |
| CNC(=O)c1cccc(Nc2ccnc(N3CC(Oc4ccc(F)cc4)C3)n2)c1 [Example 71] | 0.9 µM |
| CNC(=O)c1cccc(Nc2ncnc(N3CC(Oc4ccccc4-c4ccccc4)C3)n2)c1 [Example 217] | 8.66 µM |
| CNC(=O)c1c(F)ccc(Nc2ncnc(N3CC(COc4ccc(Cl)cc4)C3)n2)c1F [Example 161] | 3.67 µM |
| CNC(=O)c1cccc(Nc2nccc(N3CC(Oc4ccc(F)cc4F)C3)n2)c1 [Example 125] | 2.16 µM |

Next, values leading:

| IC50 | SMILES |
| --- | --- |
| 0.86 µM | CNC(=O)c1cccc(Nc2ncnc(N3CCC(Oc4ccc(OC(F)(F)F)c(F)c4)CC3)n2)c1 [Example 68] |
| 8.11 µM | CNC(=O)c1cccc(Nc2ncnc(N3CC(COc4ccc(Cl)c(C(F)(F)F)c4)C3)n2)c1 [Example 208] |
| 0.65 µM | CNC(=O)c1cccc(Nc2ncnc(N3CC(Oc4cccc(C)c4)C3)n2)c1 [Example 49] |
| 17.1 µM | CNC(=O)c1cccc(Nc2ncnc(N3CCC4(CC3)OCc3ccccc34)n2)c1 [Example 259] |
| 4.67 µM | CNC(=O)c1cccc(Nc2ncnc(N3CCc4cc(F)ccc4C3)n2)c1 [Example 176] |
| 3.71 µM | CNC(=O)c1cccc(Nc2ncnc(N3CC(COc4ccc(F)cc4)C3)n2)c1 [Example 163] |
| 1.58 µM | CNC(=O)c1cccc(Nc2ncnc(N3CC(COc4ccc(Cl)cc4F)C3)n2)c1 [Example 105] |
| 0.44 µM | CNC(=O)c1cccc(Nc2ncnc(N3CC(Oc4ccc(C)cc4Cl)C3)n2)c1 [Example 32] |
| 0.5 µM | CNC(=O)c1cccc(Nc2ncnc(N3CC(Oc4ccc(Cl)c(Cl)c4)C3)n2)c1 [Example 39] |
| 2.13 µM | CNC(=O)c1cccc(Nc2ncnc(N3CCc4c(cccc4OC(F)(F)F)C3)n2)c1 [Example 123] |
| 0.85 µM | CNC(=O)c1cccc(Nc2ncnc(N3CC(COc4ccc(OC(F)(F)F)cc4)C3)n2)c1 [Example 67] |
| 2.07 µM | CNC(=O)c1cccc(Nc2ncnc(N3CCC(Oc4cccc(OC(F)(F)F)c4)CC3)n2)c1 [Example 119] |
| 4.62 µM | O=C(NCC(F)(F)F)c1cccc(Nc2ncnc(N3CC(Oc4ccc(F)cc4)C3)n2)c1 [Example 174] |
| 1.43 µM | CNC(=O)c1cccc(Nc2ncnc(N3CC=C(c4ccc(C#N)cc4)CC3)n2)c1 [Example 99] |
| 5.6 µM | CNC(=O)c1cccc(Nc2ncnc(N3CC(Oc4ccccc4F)C3)n2)c1 [Example 192] |
| 0.82 µM | CNC(=O)c1cccc(Nc2ncnc(N3CC(Oc4cccc(C(F)(F)F)c4)C3)n2)c1 [Example 62] |
| 1.57 µM | CNC(=O)c1cccc(Nc2ncnc(N3CC(Oc4cccc(Cl)c4Cl)C3)n2)c1 [Example 104] |
| 16.9 µM | CNC(=O)c1cccc(Nc2ncnc(N3CCC(Nc4ccccc4)CC3)n2)c1 [Example 257] |
| 0.84 µM | CNC(=O)c1cccc(Nc2ncnc(N3CC(Oc4cc(C)ccc4Cl)C3)n2)c1 [Example 66] |
| 1.67 µM | CNC(=O)c1cccc(Nc2ncnc(N3CCc4cc(OC(F)(F)F)ccc4C3)n2)c1 [Example 110] |
| 0.29 µM | CNC(=O)c1cccc(Nc2ncnc(N3CC(Oc4ccc(F)cc4C)C3)n2)c1 [Example 16] |
| 0.32 µM | CNC(=O)c1cccc(Nc2ncnc(N3CC(Oc4ccc(Cl)cc4C)C3)n2)c1 [Example 20] |
| 0.96 µM | CNC(=O)c1cccc(Nc2ncnc(N3CCN(c4ccc(C(F)(F)F)cc4)CC3)n2)c1 [Example 74] |
| 2.9 µM | CNC(=O)c1cccc(Nc2ncnc(N3CCC(Oc4ccc(Cl)cc4)CC3)n2)c1 [Example 145] |
| 0.63 µM | CNC(=O)c1cccc(Nc2ncnc(N3CC=C(c4csc(-c5ccccc5)n4)CC3)n2)c1 [Example 46] |
| 8.96 µM | CNC(=O)c1cccc(Nc2ncnc(N3CCc4cc(OC)ccc4C3)n2)c1 [Example 222] |
| 2.74 µM | CNC(=O)c1cccc(Nc2ncnc(N3CCc4c(cccc4OC)C3)n2)c1 [Example 138] |
| 4.85 µM | CNC(=O)c1cccc(Nc2ncnc(N3CCN(Cc4ccc(OC(F)(F)F)cc4)CC3)n2)c1 [Example 180] |
| 1.06 µM | CNC(=O)c1cccc(Nc2ncnc(N3CC(Oc4ccc(SC(F)(F)F)cc4)C3)n2)c1 [Example 83] |

Same assay, conditions: human Nav1.7 stably expressed in 293 cells; whole-cell patch clamp; average IC50 from Hill fit

| IC50 | SMILES |
| --- | --- |
| 4.46 µM | CNC(=O)c1cc(Nc2cccc(N3CC(Oc4ccc(Cl)cc4F)C3)n2)ccc1F [Example X, 5-((6-(3-(4-chloro-2-fluorophenoxy)-1-azetidinyl)-2-pyridinyl)amino)-2-fluoro-N-methylbenzamide] |
| 2.83 µM | CNC(=O)c1cccc(Nc2nccc(N3CC(Oc4ccc(F)c(Cl)c4)C3)n2)c1 [Example F, 3-((4-(3-(3-chloro-4-fluorophenoxy)-1-azetidinyl)-2-pyrimidinyl)amino)-N-methylbenzamide] |
| 1.44 µM | CNC(=O)c1cccc(Nc2nccc(N3CCc4cc(OCC(F)(F)F)ccc4C3)n2)c1 [Example AI, N-methyl-3-((4-(6-(2,2,2-trifluoroethoxy)-3,4-dihydro-2(1H)-isoquinolinyl)-2-pyrimidinyl)amino)benzamide] |
| 1.55 µM | CNC(=O)c1cccc(Nc2nccc(N3CC(Oc4ccc(C(F)(F)F)cc4)C3)n2)c1 [Example C, N-methyl-3-((4-(3-(4-(trifluoromethyl)phenoxy)-1-azetidinyl)-2-pyrimidinyl)amino)benzamide] |

| SMILES | IC50 |
| --- | --- |
| CNC(=O)c1cccc(Nc2nccc(N3CC(Oc4ccc(OC)cc4)C3)n2)c1 [Example D, 3-((4-(3-(4-methoxyphenoxy)-1-azetidinyl)-2-pyrimidinyl)amino)-N-methylbenzamide] | 0.43 µM |
